{
  "source": "patent US20090215893A1",
  "about": "“Parakeratosis inhibitor, pore-shrinking agent,or rough skin preventing/ameliorating agent, and external composition for skin” (Shiseido Company Ltd, priority 2005, published 2009)",
  "key": {"[1]": {"system": "back of a hairless mouse (HR-1), 10 mass % oleic acid applied", "assay": "Parakeratosis-inhibiting effect tests: oleic acid applied to hairless mouse back, macroscopic rough skin evaluation and parakeratosis value", "assay_type": "in vivo", "conditions": "for Macroscopic evaluation (average of four animals) / Parakeratosis value (average of four animals): sample 3 mass %; for Macroscopic evaluation (average of four animals): 100 μL after oleic acid, three days, rough skin score 0.0 (no redness) to 2.0 (control); for Parakeratosis value (average of four animals): tape-stripped stratum corneum, hematoxylin, range 1.0 to 3.0, higher = parakeratosis advanced, control 2.0; for parakeratosis value / parakeratosis-inhibiting effect / rough skin preventing effect, based on stratum corneum peeling and redness: summary of Table 1, concentrations as in Table 1", "method_in_brief": "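Hairless mouse backs given 100 μL of 10 mass % oleic acid in ethanol, then 100 μL of sample (mainly 3 mass % in 30% ethanol, pH 7.0 to 7.5), daily for three days. Rough skin scored 0.0 to 2.0 in 0.25 steps against control. Tape-stripped, hematoxylin-stained stratum corneum rated 1.0 to 3.0 for parakeratosis.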"}, "[2]": {"system": "pores of the cheeks of healthy human males", "assay": "Human pore-shrinking effect (replica assessment of cheek pores)", "assay_type": "in vivo", "conditions": "for Replica assessment (average of n = 5): sample 3 mass %, twice a day for one month, pore size rating 1-13, after application minus before application, control 0.3; for pore-shrinking effect: summary of Table 2, concentrations as in Table 2"}, "[3]": {"system": "back of hairless mice (HR-1), 10 mass % oleic acid applied", "assay": "Inhibiting effect against rough skin induced by oleic acid application (transepidermal water loss)", "assay_type": "in vivo", "parameters": "ΔTEWL value: unit not given here", "conditions": "for ΔTEWL value: sample 3 mass %, three days, average of four animals, rough skin worse as value increases, control 12.0; for ΔTEWL value compared with the control aqueous solution / rough skin preventing/ameliorating effect: summary of Table 3, concentrations as in Table 3", "method_in_brief": "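HR-1 hairless mice (four per group) received 100 μL 10 mass % oleic acid in ethanol on the back, then 100 μL sample solution, daily for three days. TEWL measured next day with a TEWA Meter; ΔTEWL versus before application, averaged over four animals, compared with aqueous control.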"}, "[4]": {"system": "cheek of a panel of 20 women", "assay": "Sensory irritation tests", "assay_type": "in vivo, human", "conditions": "for Evaluation (sensory irritation, class of average rating): sample 3 mass %, 1 mL on cheek, evaluated for ten minutes, 20 women; for sensory irritation: summary of Table 4, β-alanine at 3%", "method_in_brief": "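A cotton swab applied 1 mL of control or sample aqueous solution to opposite cheeks of 20 women. Irritation was scored 0–3 every 30 s for 10 min. Average ratings were graded A (<0.2), B (0.2–<1.0), C (1.0–<2.0) or D (≥2.0).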"}},
  "data": [
    {"smiles": "O=C(O)[C@@H](CO)NC1CCCCC1", "note": "[N-cyclohexyl-D-serine]", "values": [
      {"measurement": "Macroscopic evaluation (average of four animals)", "setting": "[1]", "value": 1.3},
      {"measurement": "Parakeratosis value (average of four animals)", "setting": "[1]", "value": 1.2},
      {"measurement": "parakeratosis value / parakeratosis-inhibiting effect", "setting": "[1]", "value": "reduced"},
      {"measurement": "rough skin preventing effect, based on stratum corneum peeling and redness", "setting": "[1]", "value": "seen"},
      {"measurement": "Replica assessment (average of n = 5)", "setting": "[2]", "value": "−1.3"},
      {"measurement": "pore-shrinking effect", "setting": "[2]", "value": "seen"},
      {"measurement": "ΔTEWL value", "setting": "[3]", "value": 6.8},
      {"measurement": "ΔTEWL value compared with the control aqueous solution / rough skin preventing/ameliorating effect", "setting": "[3]", "value": "significantly lower"},
      {"measurement": "Evaluation (sensory irritation, class of average rating)", "setting": "[4]", "value": "A (average rating of less than 0.2)"},
      {"measurement": "sensory irritation", "setting": "[4]", "value": "no problems"}
    ]},
    {"smiles": "O=C(O)[C@H](CO)NS(=O)(=O)c1ccccc1", "note": "[N-benzenesulfonyl-L-serine]", "values": [
      {"measurement": "Macroscopic evaluation (average of four animals)", "setting": "[1]", "value": 1.2},
      {"measurement": "Parakeratosis value (average of four animals)", "setting": "[1]", "value": 1.2},
      {"measurement": "parakeratosis value / parakeratosis-inhibiting effect", "setting": "[1]", "value": "reduced"},
      {"measurement": "rough skin preventing effect, based on stratum corneum peeling and redness", "setting": "[1]", "value": "seen"},
      {"measurement": "Replica assessment (average of n = 5)", "setting": "[2]", "value": "−1.2"},
      {"measurement": "pore-shrinking effect", "setting": "[2]", "value": "seen"},
      {"measurement": "ΔTEWL value", "setting": "[3]", "value": 6.8},
      {"measurement": "ΔTEWL value compared with the control aqueous solution / rough skin preventing/ameliorating effect", "setting": "[3]", "value": "significantly lower"},
      {"measurement": "Evaluation (sensory irritation, class of average rating)", "setting": "[4]", "value": "A (average rating of less than 0.2)"},
      {"measurement": "sensory irritation", "setting": "[4]", "value": "no problems"}
    ]},
    {"smiles": "O=C(O)[C@@H](CO)NS(=O)(=O)c1ccccc1", "note": "[N-benzenesulfonyl-D-serine]", "values": [
      {"measurement": "Macroscopic evaluation (average of four animals)", "setting": "[1]", "value": 1.3},
      {"measurement": "Parakeratosis value (average of four animals)", "setting": "[1]", "value": 1.2},
      {"measurement": "parakeratosis value / parakeratosis-inhibiting effect", "setting": "[1]", "value": "reduced"},
      {"measurement": "rough skin preventing effect, based on stratum corneum peeling and redness", "setting": "[1]", "value": "seen"},
      {"measurement": "Replica assessment (average of n = 5)", "setting": "[2]", "value": "−1.1"},
      {"measurement": "pore-shrinking effect", "setting": "[2]", "value": "seen"},
      {"measurement": "ΔTEWL value", "setting": "[3]", "value": 6.7},
      {"measurement": "ΔTEWL value compared with the control aqueous solution / rough skin preventing/ameliorating effect", "setting": "[3]", "value": "significantly lower"},
      {"measurement": "Evaluation (sensory irritation, class of average rating)", "setting": "[4]", "value": "A (average rating of less than 0.2)"},
      {"measurement": "sensory irritation", "setting": "[4]", "value": "no problems"}
    ]},
    {"smiles": "CN[C@H](C)C(=O)O", "note": "[N-methyl-D-alanine]", "values": [
      {"measurement": "Macroscopic evaluation (average of four animals)", "setting": "[1]", "value": 1.2},
      {"measurement": "Parakeratosis value (average of four animals)", "setting": "[1]", "value": 1.3},
      {"measurement": "parakeratosis value / parakeratosis-inhibiting effect", "setting": "[1]", "value": "reduced"},
      {"measurement": "rough skin preventing effect, based on stratum corneum peeling and redness", "setting": "[1]", "value": "seen"},
      {"measurement": "Replica assessment (average of n = 5)", "setting": "[2]", "value": "−0.7"},
      {"measurement": "pore-shrinking effect", "setting": "[2]", "value": "seen"},
      {"measurement": "ΔTEWL value", "setting": "[3]", "value": 8.2},
      {"measurement": "ΔTEWL value compared with the control aqueous solution / rough skin preventing/ameliorating effect", "setting": "[3]", "value": "significantly lower"},
      {"measurement": "Evaluation (sensory irritation, class of average rating)", "setting": "[4]", "value": "A (average rating of less than 0.2)"},
      {"measurement": "sensory irritation", "setting": "[4]", "value": "no problems"}
    ]}
  ]
}
